Measured values from patent publication US5525627A, “Esters of acyl carnitines with long-chain aliphatic alcohols and pharmaceutical compositions containing same having antimycotic activity” (Sigma-Tau Industrie Farmaceutiche Riunite S.p.A., priority 1992, dated 1996).

Experiments:
[1] = test system: Candida albicans (562); test: MIC for yeast and yeast-like strains; format: cell-based; conditions: 48 hours, 35° C., read-out: Minimal Inhibitory Concentration (MIC)
Method: (§1) The following strains were used (the number of strains is in brackets): Candida (13); Criptococcus (2); Saccharormyces (1); Torulopsis (1).
(§2) Yeast Nitrogen Base supplemented with 0.15% asparagine and 1.0% glucose (as carbon source) was the medium utilized in the assays.
(§3) This medium was buffered with 0.165 M 2-(N-morpholino) propane sulfonic acid (MOPS), a non-chelating buffer. […]
(§4) The inoculum was prepared from an overnight broth culture (a 48-hour culture only for Cryptococcus) in Sabouraud broth and appropriately diluted to yield a final suspension containing approximately 5.0×10^6 Colony Forming Units per ml (CFU/ml), when compared to the Mc Farland's standard control (BRAY W. E., Clinical Laboratory Methods, 5th Ed. C. V. MOSBY, St. Louis, Mo, 1957).
(§5) After further diluting (1:50), a […] volume of such fungal suspensions and an equal volume of the substance solutions were distributed into each well of a microtiter plate (96 wells, round bottom). Such a procedure eventually allowed for an "in vitro" antimycotic activity assay utilizing final fungal inocula of approximately 5.0×10^4 CFU/ml.

[2] = test system: Candida albicans (A 54); test: MIC for yeast and yeast-like strains; format: cell-based; conditions: 48 hours, 35° C., read-out: Minimal Inhibitory Concentration (MIC)
Method: as §1, §2, §3, §4, §5

[3] = test system: Candida albicans (Ca 2); test: MIC for yeast and yeast-like strains; format: cell-based; conditions: 48 hours, 35° C., read-out: Minimal Inhibitory Concentration (MIC)
Method: as §1, §2, §3, §4, §5

[4] = test system: Candida krusei (ISS 1); test: MIC for yeast and yeast-like strains; format: cell-based; conditions: Pichia kudriavzevii; 48 hours, 35° C.; read-out: Minimal Inhibitory Concentration (MIC)
Method: as §1, §2, §3, §4, §5

[5] = test system: Candida tropicalis (5705); test: MIC for yeast and yeast-like strains; format: cell-based; conditions: 48 hours, 35° C., read-out: Minimal Inhibitory Concentration (MIC)
Method: as §1, §2, §3, §4, §5

[6] = test system: Cryptococcus neoformans (4711); test: MIC for yeast and yeast-like strains; format: cell-based; conditions: 48 hours, 35° C., read-out: Minimal Inhibitory Concentration (MIC)
Method: as §1, §2, §3, §4, §5

[7] = test system: Saccharomyces cerevisiae (ATCC 7752); test: MIC for yeast and yeast-like strains; format: cell-based; conditions: ATCC7752, 48 hours, 35° C., read-out: Minimal Inhibitory Concentration (MIC)
Method: as §1, §2, §3, §4, §5

[8] = test system: Torulopsis candida (D.S.); test: MIC for yeast and yeast-like strains; format: cell-based; conditions: Suzukiozyma candida; 48 hours, 35° C.; read-out: Minimal Inhibitory Concentration (MIC)
Method: as §1, §2, §3, §4, §5

[9] = test system: Candida albicans (PG); test: MIC and MFC for yeast and yeast-like strains; format: cell-based; conditions: 48 hours, 35° C., read-out: Minimal Inhibitory Concentration (MIC)
Method: as §1, §2
(§6) This medium was buffered with 0.165 M 2-(N-morpholino) propane sulfonic acid (MOPS), a non-chelating buffer.
(§7) Antimicrob. Agents Cheroother. Aug. 34.8:1542-1545).
as §4, §5
(§8) The minimal fungicidal concentration was evaluated by spot-transferring onto Petri dishes, containing Sabouraud agar, 0.01-ml volumes of all the samples showing no visible fungal growth.

[10] = test system: Candida albicans (ATCC 2091); test: MIC for yeast and yeast-like strains; format: cell-based; conditions: ATCC2091, 48 hours, 35° C., read-out: Minimal Inhibitory Concentration (MIC)
Method: as §1, §2, §6, §7, §4, §5

[11] = test system: Candida albicans (ISS 1); test: MIC for yeast and yeast-like strains; format: cell-based; conditions: 48 hours, 35° C., read-out: Minimal Inhibitory Concentration (MIC)
Method: as §1, §2, §6, §7, §4, §5

[12] = test system: Candida glabrata (ISS 1); test: MIC for yeast and yeast-like strains; format: cell-based; conditions: Nakaseomyces glabratus; 48 hours, 35° C.; read-out: Minimal Inhibitory Concentration (MIC)
Method: as §1, §2, §6, §7, §4, §5

[13] = test system: Candida guilliermondii (ISS 1); test: MIC for yeast and yeast-like strains; format: cell-based; conditions: Meyerozyma guilliermondii; 48 hours, 35° C.; read-out: Minimal Inhibitory Concentration (MIC)
Method: as §1, §2, §6, §7, §4, §5

[14] = test system: Candida parapsilosis (ISS 1); test: MIC for yeast and yeast-like strains; format: cell-based; conditions: Lodderomyces parapsilosis; 48 hours, 35° C.; read-out: Minimal Inhibitory Concentration (MIC)
Method: as §1, §2, §6, §7, §4, §5

[15] = test system: Candida pseudotropicalis (EC 1); test: MIC for yeast and yeast-like strains; format: cell-based; conditions: Kluyveromyces marxianus; 48 hours, 35° C.; read-out: Minimal Inhibitory Concentration (MIC)
Method: as §1, §2, §6, §7, §4, §5

[16] = test system: Candida tropicalis (ISS 1); test: MIC for yeast and yeast-like strains; format: cell-based; conditions: 48 hours, 35° C., read-out: Minimal Inhibitory Concentration (MIC)
Method: as §1, §2, §6, §7, §4, §5

[17] = test system: Cryptococcus neoformans (ISS 1); test: MIC for yeast and yeast-like strains; format: cell-based; conditions: 48 hours, 35° C., read-out: Minimal Inhibitory Concentration (MIC)
Method: as §1, §2, §6, §7, §4, §5

[18] = test system: yeast-like fungi; test: MIC / MFC for yeast-like fungi, all strains; format: cell-based, Candida, Cryptococcus, Saccharomyces, Torulopsis; conditions: versus susceptible strains; read-out: Mean MIC values
Method: as §1, §2, §3, §4, §5, §8

[19] = test system: Aspergillus fumigatus (1/A); test: MIC for filamentous fungi; format: cell-based; conditions: read-out: Minimal Inhibitory Concentration (MIC)
Description: (§9) The following strains were used (the number of strains is in brackets): Aspergillus (5); Fusarium (1); Mucor (1); Penicillium (1).
(§10) The tested substances were: ST 712, ST 722, ST 982, ST 983, ST 1000, ST 1001, ST 1032, ST 1033, ST 1034, ST 1036, ST 1037, ST 1038, ST 1050, ST 1051, ST 1052, ST 1053. The assay medium was the same as the one used in the previous study. The conidia from 72-hour cultures in Sabouraud agar, collected by washing with Sabouraud medium and Tween 80 (one drop of Tween per 10 ml of medium), were utilized as inoculum (5.0×10^4 CFU/ml).
(§11) The assay was performed using the same procedure as described for yeast-like fungi.
(§12) Also the evaluation of MIC and MFC was as reported previously.

[20] = test system: Aspergillus fumigatus (2/A); test: MIC for filamentous fungi; format: cell-based; conditions: read-out: Minimal Inhibitory Concentration (MIC)
Description: as §9, §10, §11, §12

[21] = test system: Aspergillus fumigatus (ATCC 28212); test: MIC for filamentous fungi; format: cell-based; conditions: ATCC28212, read-out: Minimal Inhibitory Concentration (MIC)
Description: as §9, §10, §11, §12

[22] = test system: Aspergillus fumigatus (C/1); test: MIC for filamentous fungi; format: cell-based; conditions: read-out: Minimal Inhibitory Concentration (MIC)
Description: as §9, §10, §11, §12

[23] = test system: Aspergillus niger (ATCC 16404); test: MIC for filamentous fungi; format: cell-based; conditions: ATCC16404, read-out: Minimal Inhibitory Concentration (MIC)
Description: as §9, §10, §11, §12

[24] = test system: Fusarium sp. (ISS 1); test: MIC for filamentous fungi; format: cell-based; conditions: read-out: Minimal Inhibitory Concentration (MIC)
Description: as §9, §10, §11, §12

[25] = test system: Mucor mucedo (ATCC 7941); test: MIC for filamentous fungi; format: cell-based; conditions: ATCC7941, read-out: Minimal Inhibitory Concentration (MIC)
Description: as §9, §10, §11, §12

[26] = test system: Penicillium sp. (1302); test: MIC for filamentous fungi; format: cell-based; conditions: read-out: Minimal Inhibitory Concentration (MIC)
Description: as §9, §10, §11, §12

[27] = test system: filamentous fungi; test: MIC / MFC for filamentous fungi, all strains; format: cell-based, Aspergillus, Fusarium, Mucor, Penicillium; conditions: versus susceptible strains; read-out: Mean MIC values
Description: as §9, §10, §11, §12

[28] = test system: Epidermophyton floccosum (IHEM 3495); test: MIC for dermatophytic fungi; format: cell-based; conditions: 35° C., 96 hours, read-out: Minimal Inhibitory Concentration (MIC)
Method: (§13) The following strains were used: Trichophyton menthagrophytes ATCC 9533, Trichophyton rubrum IHEM 4274, Microsporum canis IHEM 3522, Epydermophyton floccosum IHEM 3495. The tested substances were: ST 722, ST 1033, ST 1037, ST 1050, ST 1051, ST 1052,. ST 1053.
(§14) The assay was performed following the same procedure described for the yeasts, by using 7-day fungi cultures grown at 30° C. in Potato Dextrose agar, and harvested with Sabouraud broth and Tween 80 (0.5%).
(§15) After washing with Yeast Nitrogen Base, supplemented with asparagine and glucose (as carbon source), the fungal suspension was fragmented using a tissue grinder until the largest clumps or aggregates were undetectable within the grinder. This fungal suspension was then appropriately diluted in YNB to yield a concentration of 2.0×10^5 infective particles/ml (small mycelium fragments, micro-and macroaleuriospores).
(§16) Volumes of 100 μl both of the fungal suspensions and substance solutions, two-fold serially diluted in assay medium, were distributed into each well of a microtiter plate (96 wells, round bottom), which was incubated at 35° C. for 96 hours.

[29] = test system: Microsporum canis (IHEM 3522); test: MIC for dermatophytic fungi; format: cell-based; conditions: 35° C., 96 hours, read-out: Minimal Inhibitory Concentration (MIC)
Method: as §13, §14, §15, §16

[30] = test system: Trichophyton menthagrophites (ATCC 9533); test: MIC for dermatophytic fungi; format: cell-based; conditions: ATCC9533, 35° C., 96 hours, read-out: Minimal Inhibitory Concentration (MIC)
Method: as §13, §14, §15, §16

[31] = test system: Trichophyton rubrum (IHEM 4274); test: MIC for dermatophytic fungi; format: cell-based; conditions: 35° C., 96 hours, read-out: Minimal Inhibitory Concentration (MIC)
Method: as §13, §14, §15, §16

[32] = test system: dermatophytic fungi; test: MIC / MFC for dermatophytic fungi, all strains; format: cell-based, Trichophyton, Microsporum, Epidermophyton; conditions: versus susceptible strains
Method: as §13, §14, §15, §16

| SMILES | MIC [1] [µg/mL] | MIC [3] [µg/mL] | MIC [4] [µg/mL] | MIC [5] [µg/mL] | MIC [7] [µg/mL] | MIC [18] [µg/mL] | MIC [21] [µg/mL] | MIC [23] [µg/mL] | MIC [24] [µg/mL] | MIC [25] [µg/mL] | MIC [26] [µg/mL] | MIC [27] [µg/mL] | MIC [28] [µg/mL] | MIC [29] [µg/mL] | MIC [30] [µg/mL] | MIC [31] [µg/mL] | MIC [32] [µg/mL] | further results |
| --- | --- | --- | --- | --- | --- | --- | --- | --- | --- | --- | --- | --- | --- | --- | --- | --- | --- | --- |
| CCCCCCCCCCCOC(=O)C[C@H](C[N+](C)(C)C)OC(=O)CCC(C)C [ST 1034] | 1.56 | 1.56 | 1.56 | 3.12 | 3.12 | 3.03 | 6.25 | 6.25 | 3.12 | 12.5 | 3.12 | 5.85 |  |  |  |  |  | MIC [2]: 1.56 µg/mL; MIC [6]: 1.56 µg/mL; MIC [8]: 3.12 µg/mL; MIC [9]: 3.12 µg/mL; MIC [10]: 1.56 µg/mL; MIC [11]: 1.56 µg/mL; MIC [12]: 3.12 µg/mL; MIC [13]: 6.25 µg/mL; MIC [14]: 6.25 µg/mL; MIC [15]: 6.25 µg/mL; MIC [16]: 3.12 µg/mL; MIC [17]: 3.12 µg/mL; MIC [19]: 6.25 µg/mL; MIC [20]: 3.12 µg/mL; MIC [22]: 6.25 µg/mL |
| CCCCCCCCCCCCCOC(=O)C[C@H](C[N+](C)(C)C)OC(=O)CCCCCC [ST 1050] | 6.25 | 3.12 | 3.12 | 6.25 | 3.12 | 4.37 | 6.25 | 6.25 | 6.25 | 12.5 | 3.12 | 6.85 | 50 | 12.5 | 12.5 | 6.25 | 20.3 |  |
| CCCCCCCCCCCCCOC(=O)C[C@H](C[N+](C)(C)C)OC(=O)C(C)CCCC (some centres unmarked) [ST 1051] | 3.12 | 1.56 | 3.12 | 3.12 | 3.12 | 2.8 | 3.12 | 6.25 | 6.25 | 6.25 | 3.12 | 6.87 | 25 | 12.5 | 12.5 | 6.25 | 14.1 |  |
| CCCCCCCCCCCCCOC(=O)C[C@H](C[N+](C)(C)C)OC(=O)CCCCC [ST 1052] | 3.12 | 1.56 | 3.12 | 3.12 | 3.12 | 2.8 | 3.12 | 3.12 | 6.25 | 6.25 | 3.12 | 4.37 | 25 | 6.25 | 12.5 | 6.25 | 12.5 |  |
| CCCCCCCCCCCCCOC(=O)C[C@H](C[N+](C)(C)C)OC(=O)CCCCCCC [ST 1053] | 12.5 | 3.12 | 3.12 | 6.25 | 3.12 | 5.62 | 6.25 | 3.12 | 6.25 | 12.5 | 3.12 | 6.24 | 50 | 6.25 | 6.25 | 6.25 | 14.1 |  |
